“And” between values parts separate entries of the source, which are not always exact repeats. Equal entries are not always repeated. Where two headings read alike, the source gives them in different places. Marks after values point to notes of the source that are not given here.
Tests used:
[1] = molecular target: T1, ternary complex (Escherichia coli, UniProt P0CE48); experiment: Equilibrium titration of nucleotide into Cy3-labeled Phe-tRNAPhe with saturating EF-Tu; type: binding, E. coli; conditions: for RF Increase (%): Cy3 relative fluorescence increase at saturation, nucleotide titrated
T1 construct: 6-His tag followed by TEV protease site (N); made in house; host or cells: E. coli (bacterial expression vector pPROEX-Ht-b)
Text: Initial experiments focused on the molecular determinants of ternary complex formation in vitro using E. coli EF-Tu and tRNA^Phe. […] Depending on the solution conditions of the experiment, the formation of ternary complex can be detected as either a rise or fall in fluorescence intensity depending strongly on the solution conditions of the Cy3 fluorophore linked to tRNA^Phe. Other tRNA species (e.g., Cy3-labeled tRNA^Lys) undergo similar changes in fluorescence intensity.
Fluorescence experiments were performed using a Photon Technology International fluorescence meter with a 550 nm high pass filter on the emission side. All samples were analyzed in a 3 mL quartz cuvette, with a stir bar, maintained at 23° C. […] Fluorescence intensity was measured by exciting Cy3 labeled tRNA^Phe with 532 nm light and recording emission intensities at 565 nm. The sample was allowed to mix for 1 minute after each subsequent addition of reagent before data acquisition.
[formula] (Abrahamson 1985). Values of Kd were obtained by performing a nonlinear least squares fit of the data from fluorescence experiments to equation 5 in Matlab (R2011a). The best-fit values are reported with asymptotic 95% confidence intervals.
To assess the affinity and nature of GTP's interactions with ternary complex, analogous titration experiments were carried out in which GTP was added to a solution of 5 nM Phe-tRNA^Phe (Cy3-acp3U47) in the presence of saturating concentrations of EF-Tu (40 times IQ). […] The non-hydrolysable analogs each saturated at a relative fluorescence value well below 30%, illustrating EF-Tu's sensitivity to the position of the gamma phosphate.

[2] = molecular target: T1, ternary complex; experiment: Functional drug assay: dissociation of pre-formed fluorescent ternary complex; type: biochemical, E. coli; conditions: for kapp,2 apparent rate of ternary complex dissociation: compound added to pre-formed ternary complex (400 nM EF-Tu/EF-Ts, 5 nM Cy3 Phe-tRNAPhe, 10 μM GTP), GDP 100 μM
Experimental: After ternary complex was formed, drug was added to a final concentration of 1 μM. Decay curves were fit using non-linear least squares method as previously mentioned.
To test this hypothesis, ternary complex was formed at low, saturating concentrations of GTP (10 μM). […] To the formed complex, 100 μM GDP was then added and the rate of ternary complex dissociation was followed as a function of time.
To illustrate the dynamic equilibrium that exists between ternary complex and its constituents, EF-Tu-targeting drugs were delivered to pre-formed ternary complex in the same manner as GDP described above.

[3] = molecular target: EF-Tu (Escherichia coli, UniProt P0CE47); conditions: cited from earlier work
[4] = tested on: Phe-tRNA^Phe
[5] = tested on: Phe-tRNA^Phe; conditions: 4° C., pH 7.4; cited from earlier work
[6] = tested on: Phe-tRNA^Phe; conditions: for RF Increase (%): Cy3 relative fluorescence increase on ternary complex formation, EF-Tu titrated
[7] = 5 nM Phe-tRNAPhe (Cy3-acp3U47), saturating EF-Tu (400 nM EF-Tu/EF-Ts), read-out: Kd (apparent affinity of nucleotide for ternary complex)

Compound: Nc1nc2c(ncn2[C@@H]2O[C@H](COP(=O)(O)OP(=O)(O)NP(=O)(O)O)[C@@H](O)[C@H]2O)c(=O)[nH]1 [GDPNP, guanylyl-imino-diphosphate]
- Kd [1, 7]: 9270 nM
- RF Increase (%) [1]: 7.3%

Compound: Nc1nc2c(ncn2[C@@H]2O[C@H](COP(=O)(O)OP(=O)(O)O)[C@@H](O)[C@H]2O)c(=O)[nH]1 [GDP]
- kapp,2 apparent rate of ternary complex dissociation [2]: 0.3 s⁻¹ and 0.30 s⁻¹
- affinity for GDP relative to GTP ([3]; EF-Tu): 40 fold
- dissociation rate of GDP from EF-Tu•GDP•EF-Ts ([3]; Gromadski 2002): 125 s⁻¹

Compound: Nc1nc2c(ncn2[C@@H]2O[C@H](COP(=O)(O)OP(=O)(O)OP(O)(O)=S)[C@@H](O)[C@H]2O)c(=O)[nH]1 [GDPγS, guanosine 5′[γ-thio]triphosphate]
- Kd [1]: 3670 nM
- RF Increase (%) [1]: 5.5%

Compound: Nc1nc2c(ncn2[C@@H]2O[C@H](COP(=O)(O)OP(=O)(O)OP(=O)(O)O)[C@@H](O)[C@H]2O)c(=O)[nH]1 [GTP, guanosine nucleotide triphosphate]
- Kd [1, 7]: 696 nM
- RF Increase (%) [1]: 30%
- Kd ([1]; Example 2, saturating EF-Tu (~300 nM), read-out: affinity of GTP in the formation of ternary complex): ~200 nM
- kon of GTP for the complex (kon=koff/KD) ([1]; model, from koff 0.3 s^−1 and KD): ~1e+06 M⁻¹ s⁻¹

Compound: C=C(NC(=O)C(=C)NC(=O)c1csc(C2=N[C@@H]3c4csc(n4)[C@H]4NC(=O)c5csc(n5)[C@H]([C@](C)(O)[C@@H](C)O)NC(=O)[C@H]5CSC(=N5)/C(=C/C)NC(=O)[C@H]([C@@H](C)O)NC(=O)c5csc(n5)[C@]3(CC2)NC(=O)[C@H](C)NC(=O)C(=C)NC(=O)[C@H](C)NC(=O)[C@H]([C@@H](C)CC)N[C@@H]2C=Cc3c([C@H](C)O)cc(nc3[C@H]2O)C(=O)O[C@@H]4C)n1)C(N)=O [Thiostrepton]
- kapp,2 apparent rate of ternary complex dissociation [2]: 0 s⁻¹
- disruption of the ternary complex ([2]; thiostrepton added to pre-formed ternary complex (10 μM per FIG. 17)): did not lead to disruption of the ternary complex

Compound: EF-Tu (GTP): elongation factor Tu from E. coli, GTP-bound form, added as EF-Tu/EF-Ts complex
- association constant kon ([4]; EF-Tu and GTP (10 μM) added to 5 nM Cy3-labeled Phe-tRNAPhe): 1.4e+06 M⁻¹ s⁻¹
- dissociation rate koff ([4]; fit of triplicate time course to equation 7): 0.08 s⁻¹
- rate of association determined previously [5]: 1.5e+06 M⁻¹ s⁻¹
- RF Increase (%) [6]: 30%
- RF Increase (%) ([6]; listed as EF-Tu): approximately 30%
- Kd ([6]; read-out: Kd (apparent dissociation constant between EF-Tu•GTP and Phe-tRNAPhe), 5 nM Phe-tRNAPhe (Cy3-acp3U47), 10 μM GTP, 23° C., ± 95% CI): 12.7 ± 1.1 nM
- Kd ([6]; read-out: Kd (apparent dissociation constant between EF-Tu•GTP and Phe-tRNAPhe), 5 nM Phe-tRNAPhe (Cy3-acp3U47), 10 μM GTP, 23° C., ± 95% CI, listed as EF-Tu•GTP): 12.6 nM
- Kd ([6]; read-out: Kd of EF-Tu's interaction with Phe-tRNAPhe, Example 2, saturating GTP (>10 μM)): ≤ 15 nM

Compound: Kirromycin
- reduction of relative fluorescence ([2]; 1 μM added to pre-formed ternary complex): ~20%
- kapp,2 rate of GDP mediated dissociation in the presence of kirromycin ([2]; 1 μM kirromycin, then GDP): 0.02* s^−1
- dissociation of ternary complex by saturating GDP with kirromycin present ([2]; 1 μM kirromycin, then saturating GDP): did not dissociate ternary complex in the time frame observed
